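Each compound was tested at five concentrations against cells in 96-well plates for 48 hours. Abbreviation: GI50, concentration required for 50% inhibition of growth.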 The source made the active and inactive calls. Rule as the data show it: active = GI50 up to about 1.1 µM and inactive = higher.
Experiments:
Assay in all cases: growth of human tumour cells (NCI), 48 h
KM12 = tested on: KM12
ACHN = tested on: ACHN
SN12C = tested on: SN12C
SNB-78 = tested on: SNB-78
Malme-3M = tested on: Malme-3M
KM-20L2 = tested on: KM-20L2
LOX IMVI = tested on: LOX IMVI
HCT-15 = tested on: HCT-15
SW-620 = tested on: SW-620
RXF 393 = tested on: RXF 393
HOP-62 = tested on: HOP-62
OVCAR-5 = tested on: OVCAR-5
U-251 = tested on: U-251
SF-268 = tested on: SF-268
TK-10 = tested on: TK-10
SK-OV-3 = tested on: SK-OV-3
SK-MEL-5 = tested on: SK-MEL-5
IGROV-1 = tested on: IGROV-1
COLO 205 = tested on: COLO 205
NCI-H226 = tested on: NCI-H226
K562 = tested on: K562
NCI-H460 = tested on: NCI-H460
SF-539 = tested on: SF-539
OVCAR-4 = tested on: OVCAR-4
SNB-75 = tested on: SNB-75
DMS-273 = tested on: DMS-273
HOP-18 = tested on: HOP-18
HCT-116 = tested on: HCT-116
UACC-62 = tested on: UACC-62
A498 = tested on: A498
SK-MEL-2 = tested on: SK-MEL-2
SF-295 = tested on: SF-295
XF498 = tested on: XF498
NCI-H522 = tested on: NCI-H522
DMS-114 = tested on: DMS-114
RPMI-8226 = tested on: RPMI-8226
OVCAR-8 = tested on: OVCAR-8
SNB-19 = tested on: SNB-19
HT-29 = tested on: HT-29
CAKI-1 = tested on: CAKI-1
HOP-92 = tested on: HOP-92
MOLT-4 = tested on: MOLT-4
NCI-H23 = tested on: NCI-H23
UO-31 = tested on: UO-31
LXFL 529 = tested on: LXFL 529
HL-60 = tested on: HL-60
CCRF-CEM = tested on: CCRF-CEM
OVCAR-3 = tested on: OVCAR-3
A549 = tested on: A549
SK-MEL-28 = tested on: SK-MEL-28
EKVX = tested on: EKVX
M14 = tested on: M14
786-0 = tested on: 786-0
UACC-257 = tested on: UACC-257
M19-MEL = tested on: M19-MEL
HCC 2998 = tested on: HCC 2998
DLD-1 = tested on: DLD-1

C[C@]12Cc3cn[nH]c3C(=O)C1CC[C@@H]1C2CC[C@@]2(C)C1CC[C@@H]2O (stereo partly specified)
GI50 (KM12): > 100 µM (inactive) | GI50 (ACHN): > 100 µM (inactive) | GI50 (SN12C): > 100 µM (inactive) | GI50 (SNB-78): > 100 µM (inactive) | GI50 (Malme-3M): > 100 µM (inactive) | GI50 (KM-20L2): > 100 µM (inactive) | GI50 (LOX IMVI): > 100 µM (inactive) | GI50 (HCT-15): > 100 µM | GI50 (SW-620): > 100 µM (inactive) | GI50 (RXF 393): > 100 µM (inactive) | GI50 (HOP-62): > 100 µM (inactive) | GI50 (OVCAR-5): > 100 µM (inactive) | GI50 (U-251): > 100 µM (inactive) | GI50 (SF-268): > 100 µM (inactive) | GI50 (TK-10): > 100 µM (inactive) | GI50 (SK-OV-3): > 100 µM (inactive) | GI50 (SK-MEL-5): > 100 µM (inactive) | GI50 (IGROV-1): > 100 µM (inactive) | GI50 (COLO 205): > 100 µM (inactive) | GI50 (NCI-H226): > 100 µM (inactive) | GI50 (K562): > 100 µM (inactive) | GI50 (NCI-H460): > 100 µM (inactive) | GI50 (SF-539): > 100 µM (inactive) | GI50 (OVCAR-4): > 100 µM (inactive) | GI50 (SNB-75): > 100 µM (inactive) | GI50 (DMS-273): > 100 µM (inactive) | GI50 (HOP-18): > 100 µM (inactive) | GI50 (HCT-116): > 100 µM (inactive) | GI50 (UACC-62): > 100 µM (inactive) | GI50 (A498): > 100 µM (inactive) | GI50 (SK-MEL-2): 1.23 µM (inactive) | GI50 (SF-295): > 100 µM (inactive) | GI50 (XF498): > 100 µM (inactive) | GI50 (NCI-H522): > 100 µM (inactive) | GI50 (DMS-114): > 100 µM (inactive) | GI50 (RPMI-8226): > 100 µM (inactive) | GI50 (OVCAR-8): > 100 µM (inactive) | GI50 (SNB-19): > 100 µM (inactive) | GI50 (HT-29): > 100 µM (inactive) | GI50 (CAKI-1): > 100 µM (inactive) | GI50 (HOP-92): > 100 µM (inactive) | GI50 (MOLT-4): > 100 µM (inactive) | GI50 (NCI-H23): > 100 µM (inactive) | GI50 (UO-31): > 100 µM (inactive) | GI50 (LXFL 529): > 100 µM (inactive) | GI50 (HL-60): > 100 µM (inactive) | GI50 (CCRF-CEM): > 100 µM (inactive) | GI50 (OVCAR-3): > 100 µM (inactive) | GI50 (A549): > 100 µM (inactive) | GI50 (SK-MEL-28): > 100 µM (inactive) | GI50 (EKVX): > 100 µM (inactive) | GI50 (M14): > 100 µM (inactive) | GI50 (786-0): > 100 µM (inactive) | GI50 (UACC-257): > 100 µM (inactive)

COC(=O)C1=C(C(=O)OC)C2(C)Nc3ccccc3C2=C(c2ccccc2)C1 (stereo unspecified)
GI50 (KM12): 13.5 µM (inactive) | GI50 (ACHN): 22.1 µM (inactive) | GI50 (SN12C): 23.7 µM (inactive) | GI50 (SNB-78): 19 µM (inactive) | GI50 (Malme-3M): 18.4 µM (inactive) | GI50 (KM-20L2): 28.1 µM (inactive) | GI50 (LOX IMVI): 25.7 µM (inactive) | GI50 (HCT-15): 20.8 µM | GI50 (SW-620): 26.5 µM (inactive) | GI50 (RXF 393): 21.3 µM (inactive) | GI50 (HOP-62): 22.4 µM (inactive) | GI50 (OVCAR-5): 24.5 µM (inactive) | GI50 (U-251): 19.8 µM (inactive) | GI50 (SF-268): 19.1 µM (inactive) | GI50 (TK-10): 26.6 µM (inactive) | GI50 (SK-MEL-5): 15.5 µM (inactive) | GI50 (IGROV-1): 22.1 µM (inactive) | GI50 (COLO 205): 19.2 µM (inactive) | GI50 (M19-MEL): 24.2 µM (inactive) | GI50 (K562): 16.1 µM (inactive) | GI50 (NCI-H460): 19.4 µM (inactive) | GI50 (SF-539): 17.1 µM (inactive) | GI50 (OVCAR-4): 17.9 µM (inactive) | GI50 (SNB-75): 2.13 µM (inactive) | GI50 (DMS-273): 21.4 µM (inactive) | GI50 (HCT-116): 19 µM (inactive) | GI50 (UACC-62): 16.7 µM (inactive) | GI50 (SK-MEL-2): 17.8 µM (inactive) | GI50 (HCC 2998): 26.2 µM (inactive) | GI50 (SF-295): 23.2 µM (inactive) | GI50 (XF498): 12.7 µM (inactive) | GI50 (NCI-H522): 15.8 µM (inactive) | GI50 (DMS-114): 18.3 µM (inactive) | GI50 (RPMI-8226): 10.4 µM (inactive) | GI50 (OVCAR-8): 25 µM (inactive) | GI50 (SNB-19): 24 µM (inactive) | GI50 (HT-29): 27.7 µM (inactive) | GI50 (HOP-92): 13.3 µM (inactive) | GI50 (MOLT-4): 11.9 µM (inactive) | GI50 (NCI-H23): 19 µM (inactive) | GI50 (UO-31): 17.9 µM (inactive) | GI50 (LXFL 529): 15.1 µM (inactive) | GI50 (HL-60): 19.9 µM (inactive) | GI50 (CCRF-CEM): 19.4 µM (inactive) | GI50 (OVCAR-3): 17.9 µM (inactive) | GI50 (DLD-1): 30.4 µM (inactive) | GI50 (A549): 20.4 µM (inactive) | GI50 (SK-MEL-28): 19.8 µM (inactive) | GI50 (EKVX): 28.8 µM (inactive) | GI50 (M14): 17 µM (inactive) | GI50 (786-0): 22.5 µM (inactive) | GI50 (UACC-257): 17.9 µM (inactive)

From ChEMBL document CHEMBL1201862, “PubChem BioAssay data set” (2004)
